Data taken from patent US8808718B2, “Hypertonic organic acid or salt thereof disinfectant composition and its use in dental treatment” (Nikinc Pharma B.V., priority 2010, dated 2014).
Values joined by “and” are separate entries in the source; they are usually repeats but may differ in a detail not shown here. Equal values may be shown once. Read-outs that look alike come from different tables or passages of the source.

How the values were obtained:
[1] = tested on: biofilm of Enterococcus faecalis and Pseudomonas aeruginosa; test: Dual-species biofilm model, whole biofilm (total kill, plaque observation); assay type: cell-based; conditions: for visual observation of biofilm plaque on glass coverslips: after the experimental phase, calcification seen after 24 h
Text: The broth was refreshed daily. […] Later on biofilm growth was confirmed clinically. […] Colonies were very small. […] For imaging a Leica DM-IRB inverted microscope/SP2-AOBS confocal system was used. Images (512*512 pixels) were acquired with a 40×/NA 1.25 HCX PL APO oil objective. The final pixel size was 0.776 μm. […] Image stacks were acquired with a stepsize of 0.3 μm. Excitation/detection of Syto-9 and propidium iodide (PI) was done simultaneously with 488 nm excitation and with 500-550 nm detection for SYTO 9 and 600-690 nm detection for PI respectively.

Enterococcus faecalis = conditions: for mean log reduction of CFU compared with the controls: E. faecalis in dual-species biofilm; for significance of reduction of E. faecalis vs negative controls (ANOVA): α=0.05
Protocol: (§1) In brief, round glass cover slips attached to a custom made stainless steel lid, were suspended in medium inoculated with bacteria.
(§2) Cells of E. faecalis V583 and P. aeruginosa, both clinical isolates, were grown and maintained as pure cultures on blood agar plates. E. faecalis was grown under anaerobic conditions (80% N2, 10% H2 and 1.0% CO2) while P. aeruginosa was grown in air, both at 37° C. Because of their shape, Gram-staining and atmospheric preferences, distinguishing between the two species with (ISM and CFU was fairly simple. Growth media for overnight cultures and biofilms were Brain Heart Infusion Broth (BHI, Oxoid, Basinstoke, UK) and BHI-broth contained 0.5 BHI, 50 mM pipes, 5% saccharose, 1 mM Ca^2+ during biofilm growth. In the experimental phase, sodium chloride (NaCl), (Merck, Darmstadt, Germany) was added to the BHI-broth to raise the osmotic value. Other medicaments used were saturated Ca(OH) in BHI-broth (slurry), 2% sodium hypochlorite (NaOCl), Merck, Darmstadt, Germany), 2% sodium thiosulphate (STS) in peptone water (1% peptone (Oxoid) in water) for neutralising the NaOCl. Phosphate buffered saline (PBS, Oxoid) was used to wash the negative controls, as a neutralising agent for NaCl, Ca(OH)2 and for serial
(§3) Fresh cultures of each micro-organism were obtained by suspending one loopful bacteria in 5 mL BHI and grown overnight at 37° C. in air. Numbers of CFU were estimated by optical density measurement at 600 nm and relating the readings to previously performed bacterial counts. 100 μL with approximately 2×10^9 E. faecalis and 100 μL with approximately 2×10^7 P. aeruginosa were inoculated in wells of a 24 Well Multiwell Plate (Greiner Bio-one, Frickenhausen, Germany) containing 1.5 mL BHI-broth. Round glass cover slips (MMG, Germany), diameter 15 mm, mounted in a custom-made stainless steel lid, were suspended in the BHI-broth. Biofilms were grown on glass cover slips to be able to monitor the biofilm growth with a confocal laser scanning microscope (CLSM; Leica SP2-OBS). The biofilms were firmly attached on the glass slips, allowing manipulation of the coverslips without biofilm disruption.
(§4) Biofilms were grown on the coverslips for 96 h before exposure to the medicaments. […] The broth was refreshed daily. Inoculation of bacteria and the biofilm growth took place at 37° C. in air. After 48 h biofilm growth was confirmed with the aid of CLSM. Three coverslips with attached biofilms were viewed with CLSM after staining with Syto 9 and propidium iodine (PI) (LIVE/DEAD® BacLight™) according to the manufacturer's instruction. Intact, live cells stain fluorescent green, while dead cells with damaged plasma membranes stain fluorescent red.
(§5) After 96 h the coverslips with the attached bio films were submerged in NaCl-broth or Ca(OH)2-broth for 4 h, 24 h, 48 h, 72 h and 168 h. The negative controls were kept in BHI-broth. Where applicable, the incubation fluids were refreshed daily. Submersion in NaOCl 2% for 10 min served as a positive control.

Pseudomonas aeruginosa = conditions: for mean log reduction of CFU compared with the controls: P. aeruginosa in dual-species biofilm; for significance of reduction of P. aeruginosa vs negative controls (ANOVA): α=0.05
Protocol: as §1, §2, §3, §4, §5

[2] = dual-species biofilms exposed to Ca(OH)2

Row | Compound | kill ([1]; 2% NaOCl, 10 min exposure) | mean log reduction of CFU compared with the controls (Enterococcus faecalis; 72 h exposure) | mean log reduction of CFU compared with the controls (Enterococcus faecalis; 168 h exposure) | mean remaining CFU of E. faecalis (Enterococcus faecalis; after 168 h exposure) | significance of reduction of E. faecalis vs negative controls (ANOVA) (Enterococcus faecalis) | mean log reduction of CFU compared with the controls (Pseudomonas aeruginosa; 72 h exposure) | mean log reduction of CFU compared with the controls (Pseudomonas aeruginosa; 168 h exposure) | P. aeruginosa CFU detected after exposure (Pseudomonas aeruginosa; after 168 h exposure, control biofilms 1.5×10^9 CFU) | significance of reduction of P. aeruginosa vs negative controls (ANOVA) (Pseudomonas aeruginosa) | reductions after a week's exposure ([1]; 6.2 M NaCl in broth, dual species biofilm, one value per species, species not assigned) | visual observation of biofilm plaque on glass coverslips [1] | effectiveness in the biofilm model (conclusion) [1] | bacterial reduction after a week (end of experiment) [1, 2] | bacterial reduction, initial [1, 2]
1 | OCl [NaOCl, sodium hypochlorite] | 100% |  |  |  |  |  |  |  |  |  |  |  |  | 
2 | [Cl-].[Na+] [NaCl, sodium chloride] |  | 6 log CFU | 8 log CFU | 40 CFU | highly significant | 6 log CFU | 8 log CFU | none could be detected | highly significant | 10^8 and 10^7 | no signs of a biofilm plaque |  |  | 
3 | [Ca+2].[OH-].[OH-] [Ca(OH)2, calcium hydroxide] |  | 2 log CFU | 1 log CFU |  | not significant | 2 log CFU | 1 log CFU |  | significantly |  | all samples showed bio film calcification | not effective | tenfold | hundredfold
